Experimental data published in PMC6934184, “Selective DNA-PKcs inhibition extends the therapeutic index of localized radiotherapy and chemotherapy” (The Journal of Clinical Investigation, 2019).

Target: T1, MAP2K2 (MEK2) (Homo sapiens, UniProt P36507)
T1 construct: purchased Thermo Fisher Scientific (Life Technologies) SelectScreen
Assay: SelectScreen Z'LYTE
Assay type: biochemical
Details: ATP 100 µM
Outline: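 Percent values come from Thermo SelectScreen profiling of NU5455, combining activity and binding assays. CSF1R was run in Z'LYTE format at Km app ATP, and CAMK1 in Adapta format with ATP listed at 10.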

T1 sequence (P36507 whole entry): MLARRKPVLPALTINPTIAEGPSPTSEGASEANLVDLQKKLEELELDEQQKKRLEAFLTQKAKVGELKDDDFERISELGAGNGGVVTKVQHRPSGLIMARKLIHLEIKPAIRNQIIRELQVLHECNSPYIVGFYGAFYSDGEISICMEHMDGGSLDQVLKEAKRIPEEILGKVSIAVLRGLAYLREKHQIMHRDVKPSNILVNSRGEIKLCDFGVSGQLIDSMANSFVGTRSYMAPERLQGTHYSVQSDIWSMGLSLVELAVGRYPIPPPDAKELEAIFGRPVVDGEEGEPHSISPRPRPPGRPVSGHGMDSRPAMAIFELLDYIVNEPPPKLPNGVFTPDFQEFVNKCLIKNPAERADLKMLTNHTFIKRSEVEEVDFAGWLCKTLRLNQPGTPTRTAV

CN(C(=O)CN1CCOCC1)c1ccc2sc3c(-c4cccc5c(=O)cc(N6CC7CCC(C6)O7)oc45)cccc3c2c1 [NU5455]
inhibition at 1 µM: 3.9%
